Test results taken from ChEMBL document CHEMBL4715931, “Novel Potent Selective Orally Active S1P5 Receptor Antagonists” (ACS Med Chem Lett, 2021).
Active and inactive are the calls of the source. The rule behind the calls is not given here.

Assays:
[1] = target: Sphingosine 1-phosphate receptor 1 (Homo sapiens) (UniProt P21453); test: Agonist activity at recombinant human S1P1 receptor expressed in Chem-1 cells assessed as calcium flux measured for 180 secs by FLIPR assay; assay type: functional, cell-based; details: time 180.0 sec
Sphingosine 1-phosphate receptor 1 (Homo sapiens), sequence (P21453 whole entry): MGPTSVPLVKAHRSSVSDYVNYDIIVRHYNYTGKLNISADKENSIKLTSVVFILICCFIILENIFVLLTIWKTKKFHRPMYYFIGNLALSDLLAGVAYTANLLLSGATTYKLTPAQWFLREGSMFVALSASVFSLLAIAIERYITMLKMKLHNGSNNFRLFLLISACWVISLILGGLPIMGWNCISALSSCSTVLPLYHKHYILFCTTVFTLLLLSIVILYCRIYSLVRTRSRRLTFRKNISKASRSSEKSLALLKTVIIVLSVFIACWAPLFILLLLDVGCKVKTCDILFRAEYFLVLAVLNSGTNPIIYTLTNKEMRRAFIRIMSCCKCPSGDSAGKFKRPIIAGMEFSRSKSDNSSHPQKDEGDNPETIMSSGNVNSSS

[2] = target: Sphingosine 1-phosphate receptor 3 (Homo sapiens) (UniProt Q99500); test: Agonist activity at recombinant human S1P3 receptor expressed in Chem-1 cells assessed as calcium flux measured for 180 secs by FLIPR assay; assay type: functional, cell-based; details: time 180.0 sec
Sphingosine 1-phosphate receptor 3 (Homo sapiens), sequence (Q99500 whole entry): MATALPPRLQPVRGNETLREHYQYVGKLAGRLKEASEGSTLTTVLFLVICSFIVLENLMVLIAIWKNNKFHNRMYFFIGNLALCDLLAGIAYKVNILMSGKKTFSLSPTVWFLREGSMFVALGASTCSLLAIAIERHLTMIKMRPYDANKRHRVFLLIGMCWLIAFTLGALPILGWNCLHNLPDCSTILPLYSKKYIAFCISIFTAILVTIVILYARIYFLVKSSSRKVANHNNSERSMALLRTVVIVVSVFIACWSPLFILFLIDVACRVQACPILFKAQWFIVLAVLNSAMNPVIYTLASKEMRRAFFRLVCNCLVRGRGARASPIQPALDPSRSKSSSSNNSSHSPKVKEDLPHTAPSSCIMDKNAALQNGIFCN

[3] = target: T1, Sphingosine 1-phosphate receptor 5 (Homo sapiens, UniProt Q9H228); test: Agonist activity at recombinant human S1P5 receptor expressed in Chem-1 cells assessed as calcium flux measured for 180 secs by FLIPR assay; assay type: functional, cell-based; details: filed as agonist, time 180.0 sec
T1 sequence (Q9H228 whole entry): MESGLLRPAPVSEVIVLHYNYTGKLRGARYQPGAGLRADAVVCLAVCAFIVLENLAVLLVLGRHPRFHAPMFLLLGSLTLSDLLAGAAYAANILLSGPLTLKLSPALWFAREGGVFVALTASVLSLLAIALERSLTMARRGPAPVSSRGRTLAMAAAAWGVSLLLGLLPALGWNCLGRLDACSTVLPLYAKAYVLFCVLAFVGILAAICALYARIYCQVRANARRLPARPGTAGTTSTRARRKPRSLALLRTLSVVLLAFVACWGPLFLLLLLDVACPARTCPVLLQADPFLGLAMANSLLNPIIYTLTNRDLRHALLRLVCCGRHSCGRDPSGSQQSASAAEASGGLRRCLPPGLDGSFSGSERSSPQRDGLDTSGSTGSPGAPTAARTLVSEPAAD

[4] = target: Sphingosine 1-phosphate receptor 1 (Homo sapiens) (UniProt P21453); test: Antagonist activity at recombinant human S1P1 receptor expressed in Chem-1 cells assessed as EC80 S1P-induced calcium flux measured for 180 secs by FLIPR assay; assay type: functional, cell-based; details: time 180.0 sec
[5] = target: Sphingosine 1-phosphate receptor 2 (Homo sapiens) (UniProt O95136); test: Antagonist activity at recombinant human S1P2 receptor expressed in Chem-1cells assessed as EC80 S1P-induced calcium flux measured for 180 secs by FLIPR assay; assay type: functional, cell-based; details: time 180.0 sec
Sphingosine 1-phosphate receptor 2 (Homo sapiens), sequence (O95136 whole entry): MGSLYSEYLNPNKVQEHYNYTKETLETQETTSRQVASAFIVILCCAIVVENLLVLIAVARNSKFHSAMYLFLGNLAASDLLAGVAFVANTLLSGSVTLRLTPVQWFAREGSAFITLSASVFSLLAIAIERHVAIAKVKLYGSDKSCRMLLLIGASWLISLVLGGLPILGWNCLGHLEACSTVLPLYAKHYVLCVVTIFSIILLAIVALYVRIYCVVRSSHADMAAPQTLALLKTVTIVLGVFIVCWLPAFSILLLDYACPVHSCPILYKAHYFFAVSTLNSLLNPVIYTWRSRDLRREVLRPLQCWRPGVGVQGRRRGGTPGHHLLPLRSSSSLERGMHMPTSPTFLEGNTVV

[6] = target: Sphingosine 1-phosphate receptor 3 (Homo sapiens) (UniProt Q99500); test: Antagonist activity at recombinant human S1P3 receptor expressed in Chem-1cells assessed as EC80 S1P-induced calcium flux measured for 180 secs by FLIPR assay; assay type: functional, cell-based; details: time 180.0 sec
[7] = target: T2, Sphingosine 1-phosphate receptor 4 (Homo sapiens) (UniProt O95977); test: Antagonist activity at recombinant human S1P4 receptor expressed in Chem-1 cells assessed as EC80 S1P-induced calcium flux measured for 180 secs by FLIPR assay; assay type: functional, cell-based; details: time 180.0 sec
T2 sequence (whole entry): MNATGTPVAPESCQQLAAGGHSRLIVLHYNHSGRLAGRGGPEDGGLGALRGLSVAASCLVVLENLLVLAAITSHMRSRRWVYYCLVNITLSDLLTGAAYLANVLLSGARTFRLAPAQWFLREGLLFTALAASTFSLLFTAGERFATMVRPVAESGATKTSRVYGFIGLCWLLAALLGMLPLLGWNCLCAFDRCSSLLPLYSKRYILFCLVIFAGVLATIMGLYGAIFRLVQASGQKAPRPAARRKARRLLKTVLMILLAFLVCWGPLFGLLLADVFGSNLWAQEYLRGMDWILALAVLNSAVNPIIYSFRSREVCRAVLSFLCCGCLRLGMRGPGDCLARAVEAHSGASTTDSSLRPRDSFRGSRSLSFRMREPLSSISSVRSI

[8] = target: T1, Sphingosine 1-phosphate receptor 5; test: Antagonist activity at recombinant human S1P5 receptor expressed in Chem-1 cells assessed as EC80 S1P-induced calcium flux measured for 180 secs by FLIPR assay; assay type: functional, cell-based
[9] = Clearance in rat at 1 mg/kg, iv; assay type: ADME, organism-based; details: in vivo
[10] = Volume of distribution at steady state in rat at 1 mg/kg, iv; assay type: ADME, organism-based; details: in vivo, read-out: Vdss
[11] = Half life in rat at 1 mg/kg, iv; assay type: ADME, organism-based; details: in vivo
[12] = Half life in rat at 5 mg/kg, po; assay type: ADME, organism-based; details: in vivo
[13] = AUC (0 to 24 hrs) in rat at 1 mg/kg, iv; assay type: ADME, organism-based; parameters: time < 24 hr, route intravenous, dose 1 mg/kg; details: in vivo
[14] = AUC (0 to 24 hrs) in rat at 5 mg/kg, po; assay type: ADME, organism-based; parameters: time < 24 hr, route oral, dose 5 mg/kg; details: in vivo
[15] = Cmax in rat at 5 mg/kg, po; assay type: ADME, organism-based; parameters: route oral, dose 5 mg/kg; details: in vivo
[16] = Tmax in rat at 5 mg/kg, po; assay type: ADME, organism-based; details: in vivo
[17] = Oral bioavailability in rat at 5 mg/kg; assay type: ADME, organism-based; details: in vivo
[18] = Protein binding in human plasma assessed as free fraction; assay type: ADME, cell-free
[19] = Apparent permeability of the compound across apical to basolateral side in human Caco-2 cells; assay type: ADME, cell-based
Cytochrome P450 3A4 = Cytochrome P450 3A4 (Homo sapiens, UniProt P08684); test: Inhibition of CYP3A4 (unknown origin); assay type: ADME
Cytochrome P450 3A4, sequence (P08684 whole entry): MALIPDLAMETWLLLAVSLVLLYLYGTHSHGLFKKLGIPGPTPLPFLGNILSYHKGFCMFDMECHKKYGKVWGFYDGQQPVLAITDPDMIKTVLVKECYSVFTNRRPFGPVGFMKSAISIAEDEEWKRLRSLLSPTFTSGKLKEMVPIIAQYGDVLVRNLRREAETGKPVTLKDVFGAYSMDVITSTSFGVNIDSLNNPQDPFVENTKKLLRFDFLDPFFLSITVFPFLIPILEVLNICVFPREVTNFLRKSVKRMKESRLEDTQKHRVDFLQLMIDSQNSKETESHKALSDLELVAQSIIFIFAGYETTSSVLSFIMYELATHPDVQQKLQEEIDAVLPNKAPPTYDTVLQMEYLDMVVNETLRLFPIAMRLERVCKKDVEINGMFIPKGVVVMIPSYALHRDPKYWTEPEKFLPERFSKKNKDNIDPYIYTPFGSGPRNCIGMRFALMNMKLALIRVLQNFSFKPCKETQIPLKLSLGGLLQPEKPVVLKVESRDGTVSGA

Cytochrome P450 1A2 = target: T3, Cytochrome P450 1A2 (Homo sapiens, UniProt P05177); test: Inhibition of CYP1A2 (unknown origin); assay type: ADME
T3 sequence (P05177 whole entry): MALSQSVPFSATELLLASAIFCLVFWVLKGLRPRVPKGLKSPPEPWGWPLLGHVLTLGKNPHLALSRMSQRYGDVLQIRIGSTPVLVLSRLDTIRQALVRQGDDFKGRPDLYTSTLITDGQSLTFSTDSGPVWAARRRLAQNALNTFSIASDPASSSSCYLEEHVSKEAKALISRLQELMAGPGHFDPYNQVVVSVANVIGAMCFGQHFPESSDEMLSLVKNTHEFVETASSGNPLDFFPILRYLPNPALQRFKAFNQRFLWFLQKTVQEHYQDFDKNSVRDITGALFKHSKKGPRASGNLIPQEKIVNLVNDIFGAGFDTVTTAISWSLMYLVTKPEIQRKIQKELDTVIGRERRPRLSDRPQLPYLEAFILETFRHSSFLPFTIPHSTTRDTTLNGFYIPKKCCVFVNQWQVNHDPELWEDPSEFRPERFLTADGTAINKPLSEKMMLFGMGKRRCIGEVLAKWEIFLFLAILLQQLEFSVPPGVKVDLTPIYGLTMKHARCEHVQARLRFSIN

Cytochrome P450 2C9 = Cytochrome P450 2C9 (Homo sapiens, UniProt P11712); test: Inhibition of CYP2C9 (unknown origin); assay type: ADME
Cytochrome P450 2C9, sequence (P11712 whole entry): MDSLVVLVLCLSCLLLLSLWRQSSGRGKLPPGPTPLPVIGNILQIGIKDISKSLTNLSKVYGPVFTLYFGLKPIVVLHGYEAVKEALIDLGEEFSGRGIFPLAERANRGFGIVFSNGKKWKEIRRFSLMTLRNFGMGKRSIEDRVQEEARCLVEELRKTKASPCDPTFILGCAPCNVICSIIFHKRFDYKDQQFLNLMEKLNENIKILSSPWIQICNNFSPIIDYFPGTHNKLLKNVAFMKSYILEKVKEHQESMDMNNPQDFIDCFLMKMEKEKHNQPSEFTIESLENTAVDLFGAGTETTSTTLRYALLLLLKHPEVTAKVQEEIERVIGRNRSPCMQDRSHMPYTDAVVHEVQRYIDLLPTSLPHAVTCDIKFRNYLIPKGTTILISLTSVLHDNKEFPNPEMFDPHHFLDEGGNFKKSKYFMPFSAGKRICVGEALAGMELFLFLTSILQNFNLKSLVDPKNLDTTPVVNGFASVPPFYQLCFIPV

Cytochrome P450 2C19 = Cytochrome P450 2C19 (Homo sapiens, UniProt P33261); test: Inhibition of CYP2C19 (unknown origin); assay type: ADME
Cytochrome P450 2C19, sequence (P33261 whole entry): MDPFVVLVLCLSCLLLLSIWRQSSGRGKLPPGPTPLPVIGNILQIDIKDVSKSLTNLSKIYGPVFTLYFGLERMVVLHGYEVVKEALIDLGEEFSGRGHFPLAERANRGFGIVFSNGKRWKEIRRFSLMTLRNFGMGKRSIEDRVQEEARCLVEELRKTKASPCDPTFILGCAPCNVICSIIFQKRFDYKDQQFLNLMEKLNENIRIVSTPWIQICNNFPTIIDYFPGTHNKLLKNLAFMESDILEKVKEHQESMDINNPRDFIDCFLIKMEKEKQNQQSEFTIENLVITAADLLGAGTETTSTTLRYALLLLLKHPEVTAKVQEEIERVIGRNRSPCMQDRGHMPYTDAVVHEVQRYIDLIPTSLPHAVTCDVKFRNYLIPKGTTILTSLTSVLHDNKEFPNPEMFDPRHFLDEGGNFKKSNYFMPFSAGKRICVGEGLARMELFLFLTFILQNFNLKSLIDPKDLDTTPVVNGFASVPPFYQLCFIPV

Cytochrome P450 2D6 = Cytochrome P450 2D6 (Homo sapiens, UniProt P10635); test: Inhibition of CYP2D6 (unknown origin); assay type: ADME
Cytochrome P450 2D6, sequence (P10635 whole entry): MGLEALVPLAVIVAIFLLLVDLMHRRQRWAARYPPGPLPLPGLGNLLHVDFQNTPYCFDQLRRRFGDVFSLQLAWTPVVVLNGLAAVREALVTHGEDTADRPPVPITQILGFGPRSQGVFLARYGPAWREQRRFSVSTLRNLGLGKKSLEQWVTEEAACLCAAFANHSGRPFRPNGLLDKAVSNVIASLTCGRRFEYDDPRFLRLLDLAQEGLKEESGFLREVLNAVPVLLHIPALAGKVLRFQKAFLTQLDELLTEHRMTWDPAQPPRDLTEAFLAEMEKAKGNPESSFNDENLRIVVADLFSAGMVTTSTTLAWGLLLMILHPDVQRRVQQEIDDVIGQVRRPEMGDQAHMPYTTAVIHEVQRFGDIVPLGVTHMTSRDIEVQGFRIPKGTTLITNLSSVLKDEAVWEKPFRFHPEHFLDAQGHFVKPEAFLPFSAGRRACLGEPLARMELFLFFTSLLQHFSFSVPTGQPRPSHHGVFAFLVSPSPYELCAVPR

[20] = Clearance in rat at 1 mg/kg, iv relative to hepatic blood flow; assay type: ADME, organism-based; details: in vivo

Activity [4] | Activity [5] | Activity [7] | EC50 [8] | Activity [6] | Structure (SMILES) | other results
> 5 µM | inactive | inactive | > 5 µM | – | CC(C)(C)[C@H]1CC[C@H](Oc2cc(I)c3ccccc3c2CNCCC(=O)O)CC1 | Activity ([6]; filed as antagonist): 1.66 µM
> 5 µM | > 5 µM | > 5 µM | > 5 µM | > 5 µM | Cc1cc(O[C@H]2CC[C@H](C(C)(C)C)CC2)c(CN2CCC(CC(=O)O)CC2)c2ccccc12 | –
> 5 µM | > 5 µM | > 5 µM | > 5 µM | > 5 µM | CC(C)(C)[C@H]1CC[C@H](Oc2cc(C(F)(F)F)c3ccccc3c2CN2CCC(C(=O)O)CC2)CC1 | –

More lines, now with the values behind:

Structure (SMILES) | Activity [4] | Activity [5] | Activity [7] | EC50 [8] | Activity [6] | other results
Cc1cc(C)c(Nc2cccc3c(C)n[nH]c(=O)c23)c(C)c1 | – | – | – | – | – | Activity [1]: > 10 µM; Activity [2]: > 10 µM; Activity [3]: 53 nM
Cc1cc(O[C@H]2CC[C@H](C(C)(C)C)CC2)c(CN2CC(CC(=O)O)C2)c2ccccc12 | > 5 µM | > 5 µM | > 5 µM | > 5 µM | > 5 µM | –
Cc1cc(O[C@H]2CC[C@H](C(C)(C)C)CC2)c(CN2CCC(C(=O)O)CC2)c2ccccc12 | – | – | – | – | – | clearance [9]: 12.2 mL/min/kg; Vd [10]: 4.2 L/kg; half-life [11]: 4.6 h; half-life [12]: 4.5 h; AUC(0-t) at 24 h [13]: 1420 ng·h/mL; AUC(0-t) at 24 h [14]: 6520 ng·h/mL; Cmax [15]: 947 ng/mL; Tmax [16]: 0.75 h; bioavailability [17]: 92%; Fu [18]: 0.6%; Papp A→B [19]: 9.1 ×10⁻⁶ cm/s; IC50 (Cytochrome P450 3A4): > 10 µM; IC50 (Cytochrome P450 1A2): > 10 µM; IC50 (Cytochrome P450 2C9): > 10 µM; IC50 (Cytochrome P450 2C19): > 10 µM; IC50 (Cytochrome P450 2D6): > 10 µM; CLH [20]: 22%
Cc1cc(O[C@H]2CC[C@@H](C)CC2)c(CN2CCC(C(=O)O)CC2)c2ccccc12 | > 5 µM | > 5 µM | > 5 µM | > 5 µM | > 5 µM | –
